Test results taken from the supplement of paper PMC12463676, “Small-molecule dissolution of stress granules by redox modulation benefits ALS models” (Nature Chemical Biology, 2025).

Columns and labels:
lipoamide = compound: NC(=O)CCCCC1CCSS1 [lipoamide]; assay: thermal stability z-score vs DMSO; higher = more thermally stabilized by treatment; settings: HeLa, lipoamide concentration 100 µM
Experimental: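 Cellular thermal proteome profiling in HeLa cells. Cells were treated with 100 µM lipoamide for 1 h, with or without 1 mM arsenate for a further 1 h, then heated to ten temperatures (37-66.3 °C), and soluble protein was quantified by TMT mass spectrometry relative to 0.1% DMSO controls. The thermal stability score (sum of log2 fold changes minus the abundance score) was transformed to a z-score; mean of n = 3 experiments.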

potassium arsenate = compound: O=[As]([O-])(O)O.[K+] [potassium arsenate]; assay: as above; settings: HeLa; arsenate concentration 1 mM
Experimental: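 Cellular thermal proteome profiling in HeLa cells treated with 1 mM arsenate for 1 h (DMSO pretreatment), heated to ten temperatures (37-66.3 °C). Soluble protein was quantified by TMT mass spectrometry relative to DMSO controls; the thermal stability score was transformed to a z-score; mean of n = 3 experiments.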

[1] = arsenate co-treatment: 1 mM arsenate 1 h
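Also: each temperature applied for 3 min, abundance score taken as mean log2 fold change at the two lowest temperatures, z-score obtained by mean subtraction and division by SD.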

UniProt Q92522, sequence (Q92522 whole entry): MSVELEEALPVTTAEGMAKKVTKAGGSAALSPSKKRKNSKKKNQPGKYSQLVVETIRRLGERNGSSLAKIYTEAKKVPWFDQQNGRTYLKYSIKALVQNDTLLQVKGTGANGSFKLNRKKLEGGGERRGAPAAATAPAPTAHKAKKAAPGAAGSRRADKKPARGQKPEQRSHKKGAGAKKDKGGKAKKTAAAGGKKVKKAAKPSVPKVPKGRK
UniProt Q99871, sequence (Q99871 whole entry): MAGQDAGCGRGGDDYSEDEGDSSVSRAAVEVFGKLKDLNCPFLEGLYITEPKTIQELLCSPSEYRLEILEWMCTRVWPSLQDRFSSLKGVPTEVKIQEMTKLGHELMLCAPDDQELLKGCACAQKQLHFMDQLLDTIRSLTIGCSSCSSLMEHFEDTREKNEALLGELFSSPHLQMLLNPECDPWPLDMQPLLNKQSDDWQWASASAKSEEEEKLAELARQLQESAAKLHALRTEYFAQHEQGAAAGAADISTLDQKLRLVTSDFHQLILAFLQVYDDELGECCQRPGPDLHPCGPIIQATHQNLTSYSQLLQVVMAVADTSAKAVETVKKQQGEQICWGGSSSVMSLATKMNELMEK
UniProt P49590, sequence (P49590 whole entry): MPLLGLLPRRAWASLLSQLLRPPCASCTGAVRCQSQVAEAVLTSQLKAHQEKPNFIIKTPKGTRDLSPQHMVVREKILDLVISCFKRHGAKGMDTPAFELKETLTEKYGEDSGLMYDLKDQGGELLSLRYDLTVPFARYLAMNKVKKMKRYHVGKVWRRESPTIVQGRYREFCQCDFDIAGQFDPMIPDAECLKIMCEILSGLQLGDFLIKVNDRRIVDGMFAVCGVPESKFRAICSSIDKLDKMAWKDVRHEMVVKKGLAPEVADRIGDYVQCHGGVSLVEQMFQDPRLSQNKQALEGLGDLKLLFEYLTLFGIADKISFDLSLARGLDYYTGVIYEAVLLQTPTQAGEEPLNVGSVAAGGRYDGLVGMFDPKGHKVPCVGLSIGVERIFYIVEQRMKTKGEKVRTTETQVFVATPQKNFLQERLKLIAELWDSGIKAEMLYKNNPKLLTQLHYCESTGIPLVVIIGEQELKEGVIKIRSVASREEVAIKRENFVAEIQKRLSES
UniProt P12081, sequence (P12081 whole entry): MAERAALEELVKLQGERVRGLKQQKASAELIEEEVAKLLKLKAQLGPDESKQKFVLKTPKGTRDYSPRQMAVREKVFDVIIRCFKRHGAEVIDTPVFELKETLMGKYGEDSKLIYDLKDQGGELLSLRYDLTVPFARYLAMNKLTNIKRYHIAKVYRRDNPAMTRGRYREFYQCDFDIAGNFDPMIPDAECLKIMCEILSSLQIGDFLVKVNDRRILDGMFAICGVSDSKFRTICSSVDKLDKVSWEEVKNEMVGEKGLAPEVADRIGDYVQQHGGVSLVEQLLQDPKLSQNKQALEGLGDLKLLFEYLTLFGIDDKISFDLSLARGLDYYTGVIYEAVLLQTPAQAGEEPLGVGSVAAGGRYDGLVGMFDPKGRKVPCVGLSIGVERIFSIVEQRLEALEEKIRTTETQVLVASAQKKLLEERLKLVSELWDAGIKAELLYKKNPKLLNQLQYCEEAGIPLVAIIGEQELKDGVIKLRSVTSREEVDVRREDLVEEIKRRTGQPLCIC
UniProt O14929, sequence (O14929 whole entry, looked up): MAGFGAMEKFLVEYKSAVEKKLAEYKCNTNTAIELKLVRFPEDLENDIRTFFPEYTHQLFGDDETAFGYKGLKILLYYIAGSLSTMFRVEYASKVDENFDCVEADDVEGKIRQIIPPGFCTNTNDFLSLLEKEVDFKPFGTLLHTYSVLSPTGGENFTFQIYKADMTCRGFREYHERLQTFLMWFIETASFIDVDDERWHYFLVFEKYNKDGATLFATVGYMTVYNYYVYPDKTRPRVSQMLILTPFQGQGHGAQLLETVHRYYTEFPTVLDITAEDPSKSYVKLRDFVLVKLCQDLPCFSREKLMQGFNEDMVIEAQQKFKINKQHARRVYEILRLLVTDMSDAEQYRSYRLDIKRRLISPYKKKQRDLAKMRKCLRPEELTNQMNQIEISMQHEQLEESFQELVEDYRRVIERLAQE
UniProt Q9UJ83, sequence (Q9UJ83 whole entry): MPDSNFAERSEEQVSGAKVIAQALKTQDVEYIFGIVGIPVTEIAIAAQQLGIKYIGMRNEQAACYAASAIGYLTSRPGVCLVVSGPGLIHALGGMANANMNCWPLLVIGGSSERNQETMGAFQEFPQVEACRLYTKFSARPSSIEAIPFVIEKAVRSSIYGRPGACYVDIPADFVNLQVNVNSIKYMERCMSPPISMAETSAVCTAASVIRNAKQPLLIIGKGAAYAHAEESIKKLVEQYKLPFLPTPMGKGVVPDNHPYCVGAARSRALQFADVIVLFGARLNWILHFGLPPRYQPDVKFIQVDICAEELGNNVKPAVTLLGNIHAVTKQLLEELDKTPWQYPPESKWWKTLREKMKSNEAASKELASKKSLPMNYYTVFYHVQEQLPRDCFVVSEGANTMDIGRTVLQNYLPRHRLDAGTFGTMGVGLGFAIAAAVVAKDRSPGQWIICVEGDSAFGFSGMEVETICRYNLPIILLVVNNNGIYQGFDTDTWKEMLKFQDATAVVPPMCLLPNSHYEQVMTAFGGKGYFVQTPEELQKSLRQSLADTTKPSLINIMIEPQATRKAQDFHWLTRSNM
UniProt Q9NYZ3, sequence (Q9NYZ3 whole entry): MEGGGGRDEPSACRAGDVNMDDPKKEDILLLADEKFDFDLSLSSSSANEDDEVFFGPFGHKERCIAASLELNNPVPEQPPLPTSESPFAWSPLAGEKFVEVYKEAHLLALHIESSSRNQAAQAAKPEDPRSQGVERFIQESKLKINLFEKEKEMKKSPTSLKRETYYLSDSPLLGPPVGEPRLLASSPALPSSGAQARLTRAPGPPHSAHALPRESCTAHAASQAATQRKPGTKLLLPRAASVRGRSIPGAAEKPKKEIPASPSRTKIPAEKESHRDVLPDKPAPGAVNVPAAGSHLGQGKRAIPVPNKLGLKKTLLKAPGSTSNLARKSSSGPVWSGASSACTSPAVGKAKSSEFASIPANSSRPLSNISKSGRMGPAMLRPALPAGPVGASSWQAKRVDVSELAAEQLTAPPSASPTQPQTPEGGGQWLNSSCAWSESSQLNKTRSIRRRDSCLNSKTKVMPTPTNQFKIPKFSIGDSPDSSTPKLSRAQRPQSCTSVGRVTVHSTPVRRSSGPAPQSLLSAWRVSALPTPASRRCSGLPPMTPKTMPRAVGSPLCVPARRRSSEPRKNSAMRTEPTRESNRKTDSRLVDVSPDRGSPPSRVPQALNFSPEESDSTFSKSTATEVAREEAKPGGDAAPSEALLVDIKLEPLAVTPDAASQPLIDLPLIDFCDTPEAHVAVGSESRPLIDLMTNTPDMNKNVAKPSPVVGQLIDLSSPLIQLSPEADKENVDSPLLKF
UniProt Q5JVS0, sequence (Q5JVS0 whole entry): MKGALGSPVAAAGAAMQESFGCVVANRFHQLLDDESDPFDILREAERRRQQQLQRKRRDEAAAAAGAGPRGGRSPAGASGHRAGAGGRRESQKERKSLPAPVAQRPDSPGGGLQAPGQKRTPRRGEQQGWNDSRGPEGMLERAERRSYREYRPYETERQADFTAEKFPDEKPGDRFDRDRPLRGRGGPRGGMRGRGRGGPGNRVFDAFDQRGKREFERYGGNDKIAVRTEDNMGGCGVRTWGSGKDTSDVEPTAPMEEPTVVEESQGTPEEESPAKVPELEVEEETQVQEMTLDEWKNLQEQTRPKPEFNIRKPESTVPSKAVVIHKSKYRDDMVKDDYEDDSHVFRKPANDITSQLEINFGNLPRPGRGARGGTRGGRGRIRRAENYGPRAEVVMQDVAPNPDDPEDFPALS
UniProt Q6Y1H2, sequence (Q6Y1H2 whole entry): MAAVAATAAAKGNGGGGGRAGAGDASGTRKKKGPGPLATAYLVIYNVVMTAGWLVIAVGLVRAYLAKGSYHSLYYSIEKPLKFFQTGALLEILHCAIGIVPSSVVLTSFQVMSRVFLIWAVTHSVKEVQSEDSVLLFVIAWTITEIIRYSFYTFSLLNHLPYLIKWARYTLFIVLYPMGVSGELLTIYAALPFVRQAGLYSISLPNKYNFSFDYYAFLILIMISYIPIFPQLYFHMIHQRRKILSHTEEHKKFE
UniProt A4D1E9, sequence (A4D1E9 whole entry): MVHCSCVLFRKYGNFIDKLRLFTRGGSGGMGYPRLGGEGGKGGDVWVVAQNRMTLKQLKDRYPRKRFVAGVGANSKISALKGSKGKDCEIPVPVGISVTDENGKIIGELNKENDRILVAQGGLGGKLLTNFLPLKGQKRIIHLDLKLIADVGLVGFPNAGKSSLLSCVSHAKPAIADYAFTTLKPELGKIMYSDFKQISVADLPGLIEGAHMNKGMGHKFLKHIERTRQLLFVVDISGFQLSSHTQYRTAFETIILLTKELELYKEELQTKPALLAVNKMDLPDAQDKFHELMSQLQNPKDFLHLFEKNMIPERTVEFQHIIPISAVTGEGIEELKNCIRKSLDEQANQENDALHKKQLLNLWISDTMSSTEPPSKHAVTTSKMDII
UniProt Q4G148, sequence (Q4G148 whole entry): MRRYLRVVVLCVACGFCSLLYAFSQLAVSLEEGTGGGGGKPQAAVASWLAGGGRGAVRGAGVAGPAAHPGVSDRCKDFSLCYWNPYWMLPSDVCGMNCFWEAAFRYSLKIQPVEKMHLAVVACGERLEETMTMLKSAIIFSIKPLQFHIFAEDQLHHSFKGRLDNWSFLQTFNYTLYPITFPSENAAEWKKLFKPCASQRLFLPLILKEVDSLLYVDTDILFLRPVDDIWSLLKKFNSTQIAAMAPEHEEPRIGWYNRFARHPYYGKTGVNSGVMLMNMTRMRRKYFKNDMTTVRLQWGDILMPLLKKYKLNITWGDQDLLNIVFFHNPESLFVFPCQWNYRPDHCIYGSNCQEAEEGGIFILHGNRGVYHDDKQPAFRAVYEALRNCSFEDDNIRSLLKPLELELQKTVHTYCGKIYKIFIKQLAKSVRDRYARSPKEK

Target	thermal stability z-score (lipoamide; [1])	thermal stability z-score (lipoamide; arsenate co-treatment: none)	thermal stability z-score (potassium arsenate)
GTPBP3 (UniProt Q969Y2)	0.357	0.272	0.354
GTPBP4 (UniProt Q9BZE4)	-0.6	0.00531	-1
GTPBP6 (UniProt O43824)	0.0509	-0.133	0.043
GTPBP8 (UniProt Q8N3Z3)	0.145	0.0392	-0.0237
GTPBP10 (UniProt A4D1E9)	-0.946	0.2	0.522
GTSE1 (UniProt Q9NYZ3)	-0.0607	0.0853	-0.213
GUK1 (UniProt Q16774)	0.321	0.714	0.29
GUSB (UniProt P08236)	-0.178	-0.261	0.885
GXYLT1 (UniProt Q4G148)	-0.938	-0.906	0.387
GYG1 (UniProt P46976)	-0.215	0.14	-0.536
GYS1 (UniProt P13807)	0.31	0.22	0.706
H1F0 (UniProt P07305)	0.135	-0.22	-0.062
H1FX (UniProt Q92522)	-0.468	-0.893	-1.7
H2AFX (UniProt P16104)	-0.033	-0.0884	-0.415
H2AFY (UniProt O75367)	0.112	0.0481	0.327
H2AFZ|H2AFV	1.28	1.33	-1.63
H6PD (UniProt O95479)	-1.51	-1.8	-0.472
HABP4 (UniProt Q5JVS0)	0.171	-0.0888	-0.0745

Target	thermal stability z-score (lipoamide; [1])	thermal stability z-score (lipoamide; arsenate co-treatment: none)	thermal stability z-score (potassium arsenate)
HACD1 (UniProt B0YJ81)	-0.754	-1.15	-0.388
HACD2 (UniProt Q6Y1H2)	-0.673	-0.4	0.798
HACD3 (UniProt Q9P035)	-1.92	-0.722	-1.47
HACL1 (UniProt Q9UJ83)	0.259	-0.331	0.107
HADH (UniProt Q16836)	0.136	0.477	-0.432
HADHA (UniProt P40939)	-0.0579	0.088	-0.331
HADHB (UniProt P55084)	-0.0335	0.077	-0.422
HAGH (UniProt Q16775)	0.41	-0.0853	0.158
HARS2 (UniProt P49590)	-0.108	-0.629	-0.0959
HARS (UniProt P12081)	-0.0978	-0.228	1.38
HAT1 (UniProt O14929)	0.352	0.375	0.265
HAUS1 (UniProt Q96CS2)	0.0371	0.00541	0.0563
HAUS2 (UniProt Q9NVX0)	-0.143	-0.261	0.0695
HAUS3 (UniProt Q68CZ6)	-0.112	-0.176	-0.102
HAUS4 (UniProt Q9H6D7)	-0.0376	0.0952	0.0479
HAUS5 (UniProt O94927)	0.0805	0.111	-0.0216
HAUS6 (UniProt Q7Z4H7)	0.0315	0.263	0.528
HAUS7 (UniProt Q99871)	0.0237	-0.0345	-0.0643
